Source: patent US20030022820A1, “IN VIVO ACTIVATION OF TUMOR-SPECIFIC CYTOTOXIC T CELLS” (priority 1995, published 2003)
Several values for one entry are separate records, joined by “and”; a condition that tells them apart may be missing. Identical values can stand only once. Like-named read-outs stand apart in the source and are kept apart here.

Tests used:
HLA-A2.1 = HLA-A2.1 (Homo sapiens, UniProt P04439, D140Y/D185E/D98H/E176V/E277Q/G131W/G231S/I119V/I121R/I166T/I218V/L300P/L318F/N151K/N90K/P208A/P217A/Q86G/Q94H/R138H/R169H/T345S); experiment: Competition assay for peptide binding to HLA-A2.1 (inhibition of A clone 12 lysis of M1-pulsed EA2 targets)
A2.1/K^b-Tg mice = experiment: Peptide priming of A2.1/K^b-Tg mice, lytic activity of peptide-specific CTL; format: in vivo
[1] = test system: A2.1/K^b×CD8 or A2.1 transgenic (Tg) mice; experiment: Immunization of transgenic mice with Her-2/neu peptides, cytotoxicity against peptide-pulsed T2-A2.1/K^b; format: in vivo; conditions: A2.1/K^b×CD8 or A2.1 Tg mice
Procedure: A2.1/K^b×CD8 and/or A2.1 transgenic mice were immunized with each of the peptides listed in Table 6 to determine if they could stimulate A2.1-restricted CTL. Mice were immunized with a mixture of 100 mg of the Her-2/neu peptide with 120 mg “helper” peptide in 100 ml Incomplete Freund's Adjuvant (IFA).
A2.1/K^b×CD8 or A2.1 lipopolysaccharide (LPS) -blasts were prepared as stimulators for in vitro restimulation of spleen cells from immunized mice. These were prepared by incubating splenocytes from A2/K^b or A2.1 mice in complete RPMI containing 25 mg/ml LPS and 7 mg/ml dextran sulfate at 1.5×10^6 cells/ml in a total volume of 30 ml for 3 days. […] Six days following in vitro restimulation, the CTL populations were assayed for lytic activity against T2-A2/K^b target cells preincubated with the peptide used for stimulation (15 mM). The resultant Her-2/neu peptide-specific CTL populations were maintained in vitro by weekly restimulation. […]
Spleen cells from injected animals were restimulated in vitro with irradiated syngeneic cells pulsed with the peptide used for in vivo priming. Immunogenicity was evaluated by assaying these cultured cells for cytotoxicity against T2-A2.1/K^b target cells pulsed with the priming peptide. […]

BT549 = experiment: Cytotoxicity assay, lysis of human tumors by H3 and H7 specific CTL; format: cell-based; conditions: Breast, A2 +
Procedure: (§1) […] target cells were incubated at 37° C. with […] of sodium ^51Cr chromate for 90 minutes in the presence or absence of specific peptide. Cells were washed three times and resuspended in 5% RPMI. For the assay, […] ^51Cr-labeled target cells were incubated with different concentrations of effector cells in a final volume of […] in U-bottomed 96-well plates. Supernatants were removed after 4-7 hrs at 37° C., and the percent specific lysis was determined by the following formula: [formula]
(§2) Tumor cells were preincubated for 24 hours prior to the assay in media supplemented with γ-interferon (γ-IFN, 20 ng/ml) plus tumor necrosis factor-α (TNF-α, 3 ng/ml). It is known that such pretreatment of tumor cells increases the expression of MHC I and adhesion molecules such as ICAM I on the surface of the cell thus enhancing their sensitivity to lysis by CTL. (See, e.g., Fisk, et al., Lympho. & Cytokine Res. 13: 125-131 (1994); Fady, et al., Cancer Immunol. Immunother. 37: 329-336 (1993).)

CASKI = experiment: as above; format: cell-based
Procedure: as §1, §2

Hep-G2 = experiment: as above; format: cell-based; conditions: Hepatoma, A2 +
Procedure: as §1, §2

LG-2 = experiment: as above; format: cell-based
Procedure: as §1, §2

MCF-7 = experiment: as above; format: cell-based; conditions: Breast, A2 +
Procedure: as §1, §2

MDA.M8231 = experiment: as above; format: cell-based; conditions: Breast, A2 +
Procedure: as §1, §2

NCI.H1355 = experiment: as above; format: cell-based; conditions: Lung, A2 +
Procedure: as §1, §2

OVCAR-5 = experiment: as above; format: cell-based
Procedure: as §1, §2

SAOS.175 = experiment: as above; format: cell-based
Procedure: as §1, §2

SKMEL-5 = experiment: as above; format: cell-based
Procedure: as §1, §2

ST486 = experiment: as above; format: cell-based
Procedure: as §1, §2

SV80 = experiment: as above; format: cell-based
Procedure: as §1, §2

SW480 = experiment: as above; format: cell-based; conditions: Colon, A2 +
Procedure: as §1, §2

T98G = experiment: as above; format: cell-based
Procedure: as §1, §2

U2-OS = experiment: as above; format: cell-based
Procedure: as §1, §2

U87G = experiment: as above; format: cell-based; conditions: Glioblastoma, A2 +
Procedure: as §1, §2

JY = experiment: as above; format: cell-based; set-up: scale not given here
Procedure: as §1, §2

MALME-3M = experiment: as above; format: cell-based; set-up: scale not given here
Procedure: as §1, §2

MDA.MB435 = experiment: as above; format: cell-based; set-up: scale not given here
Procedure: as §1, §2

[2] = E:T 60:1, T2A2/K^b targets pulsed with two mg of peptide, highest of at least three individual mice
[3] = peptide-priming of A2.1/K^b-Tg mice
[4] = + CYT (γ-IFN 20 ng/ml plus TNF-α 3 ng/ml, 24 hours)
[5] = Osteosarcoma, A2 +, Her-2 +, + CYT (γ-IFN 20 ng/ml plus TNF-α 3 ng/ml, 24 hours)
[6] = Osteosarcoma, A2 +, Her-2 +, without cytokines
[7] = Melanoma, A2 +, Her-2 +, + CYT (γ-IFN 20 ng/ml plus TNF-α 3 ng/ml, 24 hours)
[8] = Melanoma, A2 +, Her-2 +, without cytokines
[9] = Lymphoma, A2 +, Her-2 −, + CYT (γ-IFN 20 ng/ml plus TNF-α 3 ng/ml, 24 hours)
[10] = Lymphoma, A2 +, Her-2 −, without cytokines

## PLDGEYFTL [hu-wt-p53: 322-330]
HLA-A2.1
  A2.1-binding activity / affinity, in words: intermediate
A2.1/K^b-Tg mice; [2]
  Lytic Activity by Peptide-Specific CTL After Priming of A2.1/K^b-Tg Mice [Specific 51Cr release (%)]: 0%
A2.1/K^b-Tg mice; [3]
  A2.1/K^b-restricted peptide-specific CTL response, in words: lack of CTL responsiveness

## VMAGVGSPYV [Peptide H7]
[1]
  ability to stimulate a CTL response in Tg mice, in words: able to stimulate a CTL response
BT549; [4]
  Killing of Tumors Expressing Her-2/neu: 36
BT549; without cytokines
  Killing of Tumors Expressing Her-2/neu: 2
CASKI; Cervix, A2 +, Her-2 +, + CYT (γ-IFN 20 ng/ml plus TNF-α 3 ng/ml, 24 hours)
  Killing of Tumors Expressing Her-2/neu: 20
CASKI; Cervix, A2 +, Her-2 +, without cytokines
  Killing of Tumors Expressing Her-2/neu: 9
Hep-G2; [4]
  Killing of Tumors Expressing Her-2/neu: 29
Hep-G2; without cytokines
  Killing of Tumors Expressing Her-2/neu: 4
LG-2; EBV-trans., A2 +, Her-2 −, + CYT (γ-IFN 20 ng/ml plus TNF-α 3 ng/ml, 24 hours)
  Killing of Tumors Expressing Her-2/neu: 3
LG-2; EBV-trans., A2 +, Her-2 −, without cytokines
  Killing of Tumors Expressing Her-2/neu: 1
MCF-7; [4]
  Killing of Tumors Expressing Her-2/neu: 40
MCF-7; without cytokines
  Killing of Tumors Expressing Her-2/neu: 7
MDA.M8231; [4]
  Killing of Tumors Expressing Her-2/neu: 89
MDA.M8231; without cytokines
  Killing of Tumors Expressing Her-2/neu: 26
NCI.H1355; [4]
  Killing of Tumors Expressing Her-2/neu: 62
NCI.H1355; without cytokines
  Killing of Tumors Expressing Her-2/neu: 13
OVCAR-5; Ovarian, A2 +, Her-2 +, + CYT (γ-IFN 20 ng/ml plus TNF-α 3 ng/ml, 24 hours)
  Killing of Tumors Expressing Her-2/neu: 23
OVCAR-5; Ovarian, A2 +, Her-2 +, without cytokines
  Killing of Tumors Expressing Her-2/neu: 13
SAOS.175; [5]
  Killing of Tumors Expressing Her-2/neu: 35
SAOS.175; [6]
  Killing of Tumors Expressing Her-2/neu: 27
SKMEL-5; [7]
  Killing of Tumors Expressing Her-2/neu: 40
SKMEL-5; [8]
  Killing of Tumors Expressing Her-2/neu: 16
ST486; [9]
  Killing of Tumors Expressing Her-2/neu: 8
ST486; [10]
  Killing of Tumors Expressing Her-2/neu: 5
SV80; Fibroblast, A2 +, Her-2 −, + CYT (γ-IFN 20 ng/ml plus TNF-α 3 ng/ml, 24 hours)
  Killing of Tumors Expressing Her-2/neu: 2
SV80; Fibroblast, A2 +, Her-2 −, without cytokines
  Killing of Tumors Expressing Her-2/neu: 2
SW480; [4]
  Killing of Tumors Expressing Her-2/neu: 17
SW480; without cytokines
  Killing of Tumors Expressing Her-2/neu: 2
T98G; Glioblastoma, A2 +, Her-2 +, + CYT (γ-IFN 20 ng/ml plus TNF-α 3 ng/ml, 24 hours)
  Killing of Tumors Expressing Her-2/neu: 93
T98G; Glioblastoma, A2 +, Her-2 +, without cytokines
  Killing of Tumors Expressing Her-2/neu: 29
U2-OS; [5]
  Killing of Tumors Expressing Her-2/neu: 62
U2-OS; [6]
  Killing of Tumors Expressing Her-2/neu: 30
U87G; [4]
  Killing of Tumors Expressing Her-2/neu: 1
U87G; without cytokines
  Killing of Tumors Expressing Her-2/neu: 1
JY; [9]
  Killing of Tumors Expressing Her-2/neu: 2
JY; [10]
  Killing of Tumors Expressing Her-2/neu: 4
MALME-3M; [7]
  Killing of Tumors Expressing Her-2/neu: 14
MALME-3M; [8]
  Killing of Tumors Expressing Her-2/neu: 4
MDA.MB435; Breast, A2 −, Her-2 +, + CYT (γ-IFN 20 ng/ml plus TNF-α 3 ng/ml, 24 hours)
  Killing of Tumors Expressing Her-2/neu: 1
MDA.MB435; Breast, A2 −, Her-2 +, without cytokines
  Killing of Tumors Expressing Her-2/neu: 1

## ASNENMETM [Flu NP 1934: 366-374, reference compound]
HLA-A2.1
  (%) [inhibition of A2.1-binding of M1 (58-66)]: 4%

## KLVGKLNWA [HIV-9K, reference compound]
CASKI
  Killing of Tumors Expressing Her-2/neu: 8 and 11
LG-2
  Killing of Tumors Expressing Her-2/neu: 1
OVCAR-5
  Killing of Tumors Expressing Her-2/neu: 10 and 12
SAOS.175
  Killing of Tumors Expressing Her-2/neu: 18 and 11
SKMEL-5
  Killing of Tumors Expressing Her-2/neu: 5 and 4
ST486
  Killing of Tumors Expressing Her-2/neu: 1
SV80
  Killing of Tumors Expressing Her-2/neu: 2
T98G
  Killing of Tumors Expressing Her-2/neu: 9 and 13
U2-OS
  Killing of Tumors Expressing Her-2/neu: 18 and 24
JY
  Killing of Tumors Expressing Her-2/neu: 2 and 1
MALME-3M
  Killing of Tumors Expressing Her-2/neu: 2 and 1
MDA.MB435
  Killing of Tumors Expressing Her-2/neu: 4 and 3

## GLAPPQHLI [hu-wt-p53: 187-195]
HLA-A2.1
  A2.1-binding activity / affinity, in words: high
A2.1/K^b-Tg mice; [2]
  Lytic Activity by Peptide-Specific CTL After Priming of A2.1/K^b-Tg Mice [Specific 51Cr release (%)]: 1%
A2.1/K^b-Tg mice; [3]
  A2.1/K^b-restricted peptide-specific CTL response, in words: lack of CTL responsiveness

## RGYVYQGL [VSV-N: 52-59, reference compound]
HLA-A2.1
  (%) [inhibition of A2.1-binding of M1 (58-66)]: 4%

## AAPTPAAPA [hu-wt-p53: 78-86]
A2.1/K^b-Tg mice; [2]
  Lytic Activity by Peptide-Specific CTL After Priming of A2.1/K^b-Tg Mice [Specific 51Cr release (%)]: 0%

## ITLEDSSGNL [hu-wt-p53: 255-264]
HLA-A2.1
  A2.1-binding activity / affinity, in words: intermediate
A2.1/K^b-Tg mice; [2]
  Lytic Activity by Peptide-Specific CTL After Priming of A2.1/K^b-Tg Mice [Specific 51Cr release (%)]: 3%
A2.1/K^b-Tg mice; [3]
  A2.1/K^b-restricted peptide-specific CTL response, in words: lack of CTL responsiveness

## AAPPVAPAPA [hu-wt-p53: 69-78]
A2.1/K^b-Tg mice; [2]
  Lytic Activity by Peptide-Specific CTL After Priming of A2.1/K^b-Tg Mice [Specific 51Cr release (%)]: 0%

## NLLGRNSFEV [hu-wt-p53: 263-272]
A2.1/K^b-Tg mice; [2]
  Lytic Activity by Peptide-Specific CTL After Priming of A2.1/K^b-Tg Mice [Specific 51Cr release (%)]: 3%

## STPPPGTRV [hu-wt-p53: 149-157]
HLA-A2.1
  A2.1-binding activity / affinity, in words: intermediate affinity
A2.1/K^b-Tg mice; mouse, in vivo
  A2.1/K^b-restricted peptide-specific CTL response, in words: detectable
  Lytic Activity by Peptide-Specific CTL After Priming of A2.1/K^b-Tg Mice [Specific 51Cr release (%)]: 91%

## VAPAPAAPT [hu-wt-p53: 73-81]
A2.1/K^b-Tg mice; [2]
  Lytic Activity by Peptide-Specific CTL After Priming of A2.1/K^b-Tg Mice [Specific 51Cr release (%)]: 0%
